Experimental data as given in patent US6670334B2, “Method and compositions for treating the inflammatory response” (University of Virginia Patent Foundation, priority 2001, dated 2003).

Columns and labels:
PMN = test: TNF-stimulated PMN adherence to a fibrinogen-coated surface; type: cell-based, human
Description: PMN adherence to fibrinogen was measured as follows as adapted from Hanlon, J. Leukocyte Biol., 50, 43 (1991). Twenty-four well flat-bottomed tissue culture plates were incubated (37° C.) overnight with 0.5 ml of fibrinogen (5 mg/ml) dissolved in 1.5% NaHCO3. The plates were emptied and each well washed 2× with 1 ml of normal saline. The wells were then filled with 1 ml of HBSS-0.1% human serum albumin containing PMN (1×10^6/ml) with and without rhTNFα (1 U/ml), adenosine deaminase (ADA) (1 U/ML), WRC-0474[SHA 211] (10 nM), CGS21680 (30 nM), adenosine (100 nM) and rolipram (100 nM). The plates were incubated for 90 minutes at 37° C. in 5% CO2. Following incubation the tissue culture wells were washed free of non-adherent cells with normal saline. The adherent monolayer of PMN was lysed with 0.1% triton-X, the amount of lactic dehydrogenase (LDH) released from the monolayer assayed (LDH kit, Sigma Co., St. Louis, Mo.), and compared to a standard curve relating the LDH content to PMN numbers.

human neutrophils = test: Neutrophil oxidative activity (luminol-enhanced chemiluminescence), TNF/f-met-leu-phe stimulation; type: cell-based; settings: TNF-alpha 10 U/ml primed, fMLP 1 μM stimulated, ADA 1 Units/ml, FIG. 13, read-out: EC50 for decreasing neutrophil oxidative activity
From the text: A2A agonists blocking of neutrophil oxidative activity. […] This was detected by luminol-enhanced chemiluminescence. The EC50's were lower for the ester when compared to its acid.
A one-step Ficoll-Hypaque separation procedure (Ferrante and Thong, 1980) was used to purify human neutrophils from normal heparinized (10 Units/ml) of venous blood yielding approximately 98% neutrophils; having about >95% viable as determined with trypan blue containing <50 pg/ml of endotoxin. Following separation, the neutrophils were washed with Hank's balanced salt solution (HBSS) three times.
Neutrophil oxidative activity (luminol-enhanced chemiluminescence): The activated neutrophils emit light from unstable high-energy oxygen species produced by the plasma membrane associated NADPH oxidase and metabolized by cytoplasmic and granule enzymes. The light signal from activated neutrophils can be enhanced by the addition of luminol to the samples. […]
The purified neutrophils (1×10^6/ml) were incubated in HBSS containing 0.1% HSA (1 ml), plus adenosine deaminase (1 Units/ml), ±JR2171 or ±CGS21680, and with TNF-alpha (10 U/ml) for 30 min at 37° C. in a shaking water bath. Then luminol ([…]) enhanced f-met-leu-phe (1 μM)-stimulated chemiluminescence was read with a Chronolog Photometer (Chronolog Corp., Havertown, Pa.) at 37° C. for 8 min. […]

[1] = molecular target: recombinant human A2A adenosine receptors (Homo sapiens, UniProt P29274); test: Radioligand binding assay, competition for 125I-ZM241385
Chain of recombinant human A2A adenosine receptors (P29274 whole entry): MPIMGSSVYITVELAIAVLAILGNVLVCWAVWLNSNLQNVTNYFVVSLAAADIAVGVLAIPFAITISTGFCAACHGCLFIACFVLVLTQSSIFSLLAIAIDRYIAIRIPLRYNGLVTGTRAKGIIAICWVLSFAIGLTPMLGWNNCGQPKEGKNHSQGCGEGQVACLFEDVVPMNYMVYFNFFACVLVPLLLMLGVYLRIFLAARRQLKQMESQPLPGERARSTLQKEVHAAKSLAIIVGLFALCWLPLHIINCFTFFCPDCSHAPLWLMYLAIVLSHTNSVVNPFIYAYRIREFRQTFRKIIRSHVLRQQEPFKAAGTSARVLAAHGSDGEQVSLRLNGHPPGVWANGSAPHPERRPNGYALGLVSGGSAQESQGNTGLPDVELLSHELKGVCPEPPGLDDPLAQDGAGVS

[2] = system: Adult wistar rats with bacteria meningitis (BM); test: Rat model of inflammation (bacteria meningitis): CSF WBC pleocytosis and blood-brain barrier permeability; type: in vivo
Description: Effects of WRC-0470 and rolipram on the extravasation of white blood cells in a rat model of inflammation. Adult wistar rats (approximately 200 g) were anesthetized with intermuscular injections of ketamine and xylazine. Bacteria meningitis (BM) was introduced via intracistemal inoculation of either E. coli strain 026:B6LPS (200 ng), cytokines (IL-1 and TNFα or LPS plus cytokines). The animals were then infused with rolipram and/or WRC-1470 over the duration of the experiment using a Harvard pump. CSF (cerebrospinal fluid) and blood was then sampled at 4 h post-inoculation and alterations in BBBP (blood-brain barrier permeability) and WBC (white blood cell) counts were determined. CSF and WBC concentrations were determined with standard hemacytometer methods. For assessment of % BBBP, rats were given an intravenous injection of 5 μCi 125I-labeled bovine serum albumin concomitant with intracistemal inoculation. Equal samples of CSF and blood were read simultaneously in a gamma counter and after subtraction of background radioactivity, % BBBP was calculated by the following formula: % BBBP=(cpm CSF/cpm blood)×100. All statistical tests were performed using Instat biostatistical software to compare the post-inoculation samples of experimental rats with the control rats. The statistical tests used to generate p-values were Student's t-test and ANOVA.

[3] = system: Human PMN adherent to fibrinogen; test: TNFα-stimulated superoxide release of PMN adherent to a fibrinogen coated surface; type: cell-based; settings: rolipram 100 nM; WRC-0474[SHA 211] 30-300 nM, other agonists 300 nM; p<0.05; FIG. 5
human adherent monocytes = test: Production of TNFα by purified human adherent monocytes (endotoxin-stimulated, ELISA); type: cell-based; settings: ZM241385 50 nM; p=0.020; FIG. 7B
Description: Production of TNFα by purified human adherent monocytes. A monocyte rich monolayer (>95% monocytes) was prepared by incubating 1 ml of the mononuclear leukocyte fraction (5×10^5/ml) from a Ficoll-Hypaque separation in wells of a 24 well tissue culture plate (1 hr; 37° C.; 5% CO2). […] The samples were incubated for 4 hr (37° C.; 5% CO2) and the supernatants harvested. Any suspended cells were removed by centrifugation and the cell-free samples frozen (−70° C.). TNFα was assayed in the cell-free supernatants by an ELISA kit (Cistron Biotechnology, Pine Brook, N.J.).

CCNC(=O)C1OC(n2cnc3c(N)nc(NCCc4ccc(CCC(=O)O)cc4)nc32)C(O)C1O (stereo not drawn) [CGS21680, 3-(4-{2-[6-amino-9-(5-ethylcarbamoyl-3,4-dihydroxy-tetrahydro-furan-2-yl)-9H-purin-2-ylamino]-ethyl}-phenyl)-propionic acid]
TNF-stimulated PMN adherence, % adhered (PMN; 30 nM, in the presence of ADA, TNF+ADA control 38%, p=0.004): 30%
EC50 (human neutrophils): 2.09 nM

CCNC(=O)C1OC(n2cnc3c(N)nc(NCCc4ccc(CCC(=O)OC)cc4)nc32)C(O)C1O (stereo not drawn) [JR2171, 3-(4-{2-[6-Amino-9-(5-ethylcarbamoyl-3,4-dihydroxy-tetrahydro-furan-2-yl)9H-purin-2-ylamino]-ethyl}-phenyl)-propionic acid methyl ester]
EC50 (human neutrophils): 0.371 nM
Ki [1]: 45 nM

COc1ccc(C2CNC(=O)C2)cc1OC1CCCC1 (stereo not drawn) [Rolipram, 4-(3-cyclopentyloxy-4-methoxyphenyl)-2-pyrrolidone]
alterations of BBBP ([2]; 0.002 μg/kg/hr): no significant effect
inhibition of CSF pleocytosis ([2]; 0.01 μg/kg/hr, p<0.05, FIG. 10): 99%
alterations of BBBP ([2]; 0.01 or 0.005 μg/kg/hr, p<0.05): significant inhibition
WBC migrated into the sub-arachnoid space (CSF WBC) ([2]; rolipram alone (0.001 μg/kg/hr), p<0.050): 1,670±1,273 WBC/μl

Nc1nc(OCCc2ccc3ccccc3c2)nc2c1ncn2[C@@H]1O[C@H](CO)[C@@H](O)[C@H]1O [WRC-0018]
TNFα-stimulated adherent PMN superoxide release, agonist combined with rolipram [3]: synergistically decreased superoxide release

Cc1ccc(CCOc2nc(N)c3ncn([C@@H]4O[C@H](CO)[C@@H](O)[C@H]4O)c3n2)cc1 [WRC-0090]
TNFα-stimulated adherent PMN superoxide release, agonist combined with rolipram [3]: synergistically decreased superoxide release

Nc1nc(NCCc2ccc(O)cc2)nc2nc(-c3ccco3)nn12 [ZM241385, 4-(2-[7-amino-2-(2-furyl)[1,2,4]-triazolo[2,3a]-[1,3,5]trazinyl-amino]ethyl)-phenol]
antagonism of the effect of WRC-0470 (300 nM) combined with rolipram (300 nM) on TNFα release from monocytes (human adherent monocytes): significantly inhibited the effect

Nc1ncnc2c1ncn2[C@@H]1O[C@H](CO)[C@@H](O)[C@H]1O [adenosine]
TNF-stimulated PMN adherence, % adhered (PMN; 100 nM, p=0.009 compared to TNF in the presence of ADA): 28%
